Target: T1, human GPR84 receptor (Homo sapiens, UniProt Q9NQS5)
T1 construct: host or cells: HEK293, transiently transfected
Experiment: Gαi biosensor BRET assay (GPR84 antagonism vs agonist ZQ-16)
Assay type: cell-based
Details: HEK293 cells, 200 nmol/L agonist ZQ-16; for IC50: Gαi biosensor BRET assay; for inhibition at 2 µM: tested at 2 μM (concentration code A); for inhibition at 10 µM: tested at 10 μM (concentration code D)
Method in brief: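 HEK293 cells transiently expressing GPR84, Gαi2-Rluc8, GFP10-Gγ2 and Gβ1 were pre-incubated with compounds 5 min at 37 °C in Tyrode's buffer pH 7.5, then stimulated with 200 nmol/L ZQ-16 for 5 min at room temperature. BRET2 (acceptor/donor ratio) read after 5 μmol/L coelenterazine 400A, background- and vehicle-corrected.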

T1 sequence (Q9NQS5 whole entry): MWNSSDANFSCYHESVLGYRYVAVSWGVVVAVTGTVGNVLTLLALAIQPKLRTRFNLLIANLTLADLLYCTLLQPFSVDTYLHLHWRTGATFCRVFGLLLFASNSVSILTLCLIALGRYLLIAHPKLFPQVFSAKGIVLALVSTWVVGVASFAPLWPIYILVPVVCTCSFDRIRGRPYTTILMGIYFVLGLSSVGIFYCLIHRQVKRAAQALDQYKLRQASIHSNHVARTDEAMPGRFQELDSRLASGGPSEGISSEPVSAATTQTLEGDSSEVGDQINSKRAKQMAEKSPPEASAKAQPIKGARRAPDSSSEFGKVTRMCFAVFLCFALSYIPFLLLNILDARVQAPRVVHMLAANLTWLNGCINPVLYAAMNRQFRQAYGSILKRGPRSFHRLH

Structure (SMILES)	IC50 [nM]	inhibition at 2 µM [%]	inhibition at 10 µM [%]	inhibition at 5.4 µM (tested at 5.4 μM (concentration code C)) [%]
CCN(CC)C(=O)COc1cc(C)n([C@H](C)c2ccc(C#CC3CC3)cc2)c(=O)c1 [Compound I-268]	≤ 300	> 75	–	–
Cc1cc(OCC(=O)C(C)C)cc(=O)n1[C@H](C)c1ccc(C#CC2CC2)cc1 [Compound I-270]	≤ 300	> 75	–	–
CC(=O)C(C)(C)Oc1cc(C)n([C@H](C)c2ccc(C#CC3CC3)cc2)c(=O)c1 [Compound I-271]	–	–	25 to 50	–
Cc1cc(OCC(=O)C(C)(C)C)cc(=O)n1[C@H](C)c1ccc(C#CC2CC2)cc1 [Compound I-272]	300 to 1000	> 75	–	–
Cc1cc(OCC(=O)C2CCCC2)cc(=O)n1[C@H](C)c1ccc(C#CC2CC2)cc1 [Compound I-273]	–	–	> 75	–
Cc1cc(OCC(O)C(C)C)cc(=O)n1[C@H](C)c1ccc(C#CC2CC2)cc1 (some centres unmarked) [Compound I-274]	–	–	> 75	–
COC(COc1cc(C)n([C@H](C)c2ccc(C#CC3CC3)cc2)c(=O)c1)C(C)C (some centres unmarked) [Compound I-275]	–	–	> 75	–
Cc1cc(OCC(O)C(C)(C)C)cc(=O)n1[C@H](C)c1ccc(C#CC2CC2)cc1 (some centres unmarked) [Compound I-276]	300 to 1000	–	> 75	–
COC(COc1cc(C)n([C@H](C)c2ccc(C#CC3CC3)cc2)c(=O)c1)C(C)(C)C (some centres unmarked) [Compound I-277]	> 3000	–	> 75	–
Cc1cc(OCC(=O)N(C2CC2)C2CC2)cc(=O)n1[C@H](C)c1ccc(C#CC2CC2)cc1 [Compound I-278]	≤ 300	> 75	–	–
Cc1cc(OCC(=S)N(C)C)cc(=O)n1[C@H](C)c1ccc(C#CC2CC2)cc1 [Compound I-279]	–	> 75	–	–
Cc1cc(OCCN(C)C)cc(=O)n1[C@H](C)c1ccc(C#CC2CC2)cc1 [Compound I-280]	–	–	50 to 75	–
Cc1cc(OCCN2CCCC2)cc(=O)n1[C@H](C)c1ccc(C#CC2CC2)cc1 [Compound I-281]	–	–	25 to 50	–
Cc1cc(OCC(=O)N2CC3(CCC3)C2)cc(=O)n1[C@H](C)c1ccc(C#CC2CC2)cc1 [Compound I-282]	≤ 300	> 75	–	–
Cc1cc(OCC(=O)N2CC3(COC3)C2)cc(=O)n1[C@H](C)c1ccc(C#CC2CC2)cc1 [Compound I-283]	≤ 300	–	> 75	–
Cc1cc(OCC(=O)N2CC3CC3C2)cc(=O)n1[C@H](C)c1ccc(C#CC2CC2)cc1 (some centres unmarked) [Compound I-284]	≤ 300	> 75	–	–
Cc1cc(OCC(=O)N2CC3C(C2)C3(C)C)cc(=O)n1[C@H](C)c1ccc(C#CC2CC2)cc1 (some centres unmarked) [Compound I-285]	300 to 1000	–	> 75	–
Cc1cc(OCC(=O)N(C)C)c(O)c(=O)n1[C@H](C)c1ccc(C#CC2CC2)cc1 [Compound I-286]	–	–	50 to 75	–
C[C@H](c1ccc(C#CC2CC2)cc1)n1c(CO)cc(OCC(=O)N(C)C)cc1=O [Compound I-287]	–	–	> 75	–
Cc1cc(OCC(=O)N2CC(F)C2)cc(=O)n1[C@H](C)c1ccc(C#CC2CC2)cc1 [Compound I-288]	300 to 1000	> 75	–	–

Structure (SMILES)	IC50 [nM]	inhibition at 2 µM [%]	inhibition at 10 µM [%]	inhibition at 5.4 µM (tested at 5.4 μM (concentration code C)) [%]
Cc1cc(OCC(=O)N2CC3(CCO3)C2)cc(=O)n1[C@H](C)c1ccc(C#CC2CC2)cc1 [Compound I-289]	≤ 300	–	> 75	–
Cc1cc(OCC(=O)N2CC(C)C2)cc(=O)n1[C@H](C)c1ccc(C#CC2CC2)cc1 [Compound I-290]	≤ 300	> 75	–	–
Cc1cc(OCC(=O)N2CC(CO)C2)cc(=O)n1[C@H](C)c1ccc(C#CC2CC2)cc1 [Compound I-291]	≤ 300	> 75	–	–
COCC1CN(C(=O)COc2cc(C)n([C@H](C)c3ccc(C#CC4CC4)cc3)c(=O)c2)C1 [Compound I-292]	≤ 300	> 75	–	–
Cc1cc(OCC(=O)N2CC(O)C2)cc(=O)n1[C@H](C)c1ccc(C#CC2CC2)cc1 [Compound I-293]	≤ 300	> 75	–	–
COC1CN(C(=O)COc2cc(C)n([C@H](C)c3ccc(C#CC4CC4)cc3)c(=O)c2)C1 [Compound I-294]	≤ 300	> 75	–	–
C#Cc1ccc([C@@H](C)n2c(C)cc(OCC(=O)N(C)C)cc2=O)cc1 [Compound I-295]	–	–	–	> 75
Cc1nc(OCC(=O)N2CCC[C@@H]2C(=O)O)cc(=O)n1[C@H](C)c1ccc(C#CC2CC2)cc1 [Compound I-296]	–	–	50 to 75	–
Cc1nc(OCC(=O)N2CCC[C@H]2C(=O)O)cc(=O)n1[C@H](C)c1ccc(C#CC2CC2)cc1 [Compound I-297]	–	–	> 75	–
Cc1nc(OCC(=O)N2CC[C@@H](C(=O)O)C2)cc(=O)n1[C@H](C)c1ccc(C#CC2CC2)cc1 [Compound I-298]	–	–	> 75	–
Cc1nc(OCC(=O)N2CC[C@H](C(=O)O)C2)cc(=O)n1[C@H](C)c1ccc(C#CC2CC2)cc1 [Compound I-299]	1000 to 3000	> 75	–	–
Cc1cc(OCC(=O)N2CC[C@@H]2C(=O)O)cc(=O)n1[C@H](C)c1ccc(C#CC2CC2)cc1 [Compound I-300]	1000 to 3000	–	> 75	–
Cc1cc(OCC(=O)N2CC[C@H]2C(=O)O)cc(=O)n1[C@H](C)c1ccc(C#CC2CC2)cc1 [Compound I-301]	1000 to 3000	–	> 75	–
Cc1cc(OCC(=O)N2CC(C(=O)O)C2)cc(=O)n1[C@H](C)c1ccc(C#CC2CC2)cc1 [Compound I-302]	≤ 300	> 75	–	–
Cc1cc(OCC(=O)O)cc(=O)n1[C@@H](C)c1ccc(C#CC2CC2)cc1 [Compound I-303]	–	–	< 25	–
Cc1cc(OCC(=O)N2CC[C@H](C(=O)O)[C@H]2C)cc(=O)n1[C@H](C)c1ccc(C#CC2CC2)cc1 [Compound I-304]	≤ 300	–	> 75	–
Cc1cc(OCC(=O)N2CCC[C@H]2C#N)cc(=O)n1[C@H](C)c1ccc(C#CC2CC2)cc1 [Compound I-305]	≤ 300	> 75	–	–
Cc1cc(OCC(=O)N2CCC[C@@H]2C#N)cc(=O)n1[C@H](C)c1ccc(C#CC2CC2)cc1 [Compound I-306]	300 to 1000	> 75	–	–
Cc1cc(OCC(=O)N2CCC[C@@H]2C2CC2)cc(=O)n1[C@H](C)c1ccc(C#CC2CC2)cc1 [Compound I-307]	≤ 300	> 75	–	–
Cc1cc(OCC(=O)N2CCC[C@H]2C2CC2)cc(=O)n1[C@H](C)c1ccc(C#CC2CC2)cc1 [Compound I-308]	300 to 1000	> 75	–	–

Structure (SMILES)	IC50 [nM]	inhibition at 2 µM [%]	inhibition at 10 µM [%]	inhibition at 5.4 µM (tested at 5.4 μM (concentration code C)) [%]
Cc1cc(OCC(=O)N2CC[C@@H](C#N)C2)cc(=O)n1[C@H](C)c1ccc(C#CC2CC2)cc1 [Compound I-309]	≤ 300	> 75	–	–
Cc1cc(OCC(=O)N2CC[C@H](C#N)C2)cc(=O)n1[C@H](C)c1ccc(C#CC2CC2)cc1 [Compound I-310]	≤ 300	> 75	–	–
Cc1cc(OCC(=O)N2CC[C@@H](C3CC3)C2)cc(=O)n1[C@H](C)c1ccc(C#CC2CC2)cc1 [Compound I-311]	–	> 75	–	–
Cc1cc(OCC(=O)N2CC[C@H](C3CC3)C2)cc(=O)n1[C@H](C)c1ccc(C#CC2CC2)cc1 [Compound I-312]	–	> 75	–	–
Cc1cc(OCC(=O)N2CC(C)(CO)C2)cc(=O)n1[C@H](C)c1ccc(C#CC2CC2)cc1 [Compound I-313]	≤ 300	> 75	–	–
Cc1cc(OCC(=O)N2C[C@H](O)[C@@H](O)C2)cc(=O)n1[C@H](C)c1ccc(C#CC2CC2)cc1 [Compound I-314]	≤ 300	> 75	–	–
Cc1cc(OCC(=O)N2C[C@@H](O)[C@H](O)C2)cc(=O)n1[C@H](C)c1ccc(C#CC2CC2)cc1 [Compound I-315]	≤ 300	–	> 75	–
Cc1cc(OCC(=O)N2C[C@@H](O)[C@@H](O)C2)cc(=O)n1[C@H](C)c1ccc(C#CC2CC2)cc1 [Compound I-316]	≤ 300	> 75	–	–
Cc1cc(OCC(=O)N(C)C)c(Br)c(=O)n1[C@H](C)c1ccc(C#CC2CC2)cc1 [Compound I-317]	–	–	50 to 75	–
Cc1cc(OCC(=O)N2CCC[C@@H]2C(N)=O)cc(=O)n1[C@H](C)c1ccc(C#CC2CC2)cc1 [Compound I-318]	300 to 1000	–	> 75	–
Cc1cc(OCC(=O)N2CCC3(CC3)C2)cc(=O)n1[C@H](C)c1ccc(C#CC2CC2)cc1 [Compound I-319]	≤ 300	> 75	–	–
Cc1cc(OCC(=O)N2CCCC23CC3)cc(=O)n1[C@H](C)c1ccc(C#CC2CC2)cc1 [Compound I-320]	≤ 300	–	> 75	–
CNS(=O)(=O)[C@@H]1CCN(C(=O)COc2cc(C)n([C@H](C)c3ccc(C#CC4CC4)cc3)c(=O)c2)C1 [Compound I-321]	≤ 300	> 75	–	–
CNS(=O)(=O)[C@H]1CCN(C(=O)COc2cc(C)n([C@H](C)c3ccc(C#CC4CC4)cc3)c(=O)c2)C1 [Compound I-322]	300 to 1000	> 75	–	–
CNS(=O)(=O)C1CN(C(=O)COc2cc(C)n([C@H](C)c3ccc(C#CC4CC4)cc3)c(=O)c2)C1 [Compound I-323]	≤ 300	> 75	–	–
Cc1cc(OCC(=O)N2C3CCC2COC3)cc(=O)n1[C@H](C)c1ccc(C#CC2CC2)cc1 [Compound I-324]	≤ 300	> 75	–	–
Cc1cc(OCC(=O)N2CC3CCC(C2)O3)cc(=O)n1[C@H](C)c1ccc(C#CC2CC2)cc1 [Compound I-325]	≤ 300	> 75	–	–
Cc1cc(OCC(=O)N2CC3CCC2CO3)cc(=O)n1[C@H](C)c1ccc(C#CC2CC2)cc1 (some centres unmarked) [Compound I-326]	1000 to 3000	–	> 75	–
Cc1cc(OCC(=O)N2CC3CCC2CO3)cc(=O)n1[C@H](C)c1ccc(C#CC2CC2)cc1 (some centres unmarked) [Compound I-327]	1000 to 3000	> 75	–	–

— US20260055117A1, “SUBSTITUTED PYRIDONE GPR84 ANTAGONISTS AND USES THEREOF” (Liminal BioSciences Limited, priority 2022, published 2026)
